What was measured:
[1] = Solid form stability: XRPD re-analysis after drying under vacuum and after storage at 40° C./75% RH; assay type: physicochemical; details: for hygroscopicity properties: overall assessment in words; for XRPD form after drying and storage: after drying at 40° C. under vacuum and storage at 40° C./75% RH
Protocol: XRPD analysis was carried out on a PANalytical X'pert pro with PIXcel detector (128 channels), scanning the samples between 3 and 35° 2θ. The material was gently ground to release any agglomerates and loaded onto a multi-well plate with Kapton or Mylar polymer film to support the sample. The multi-well plate was then placed into the diffractometer and analysed using Cu K radiation (α1 λ=1.54060 Å; α2=1.54443 Å; β=1.39225 Å; α1: α2 ratio=0.5) running in transmission mode (step size 0.0130° 2θ, step time 18.87s) using 40 kV/40 mA generator settings. Data were visualized and images generated using the HighScore Plus 4.7 desktop application (PANalytical, 2017).
Solutions were allowed to evaporate at ambient temperature (ca. 20° C.) and pressure. Potential salts were dried at 40° C. under vacuum for ca. 19 h and re-analyzed by XRPD then stored at 40° C./75% RH for ca. 19 h and re-analyzed by XRPD.

[2] = counterion acid; cited from earlier work
[3] = 7 days storage stability of dihydrogenphosphate polymorphs (HPLC purity); details: for stability (comparison of polymorphs, in words): Pattern 3 compared with Pattern 1 and Pattern 2
[4] = storage at 40° C./75% RH, ca. 19 h
[5] = after drying at 40° C. under vacuum

## C=CCOc1ccccc1OC[C@@H](O)CNC(C)C.CC(=O)O [Acetate Pattern 2]
[1]; material from THF
  Observation after storage at 40° C./75% RH: partially deliquesce
[1]; material from acetone
  XRPD result after storage at 40° C./75% RH: Pattern 2 peaks remained
[1]; material from acetone, ethyl acetate and t-BME
  Observation after storage at 40° C./75% RH: deliquesced
[1]; material from ethyl acetate and t-BME
  XRPD result after storage at 40° C./75% RH: Predominantly amorphous material was obtained

## O=S(=O)(O)c1ccccc1 [Benzenesulfonic acid]
[2]
  pKa1: 0.7

## CC1(C)C2CCC1(CS(=O)(=O)O)C(=O)C2 (stereo not shown) [Camphorsulfonic acid]
[2]
  pKa1: 2.2

## O=C(O)[C@H](O)[C@@H](O)[C@H](O)[C@H](O)CO [D-Gluconic acid]
[2]
  pKa1: 3.8

## O=S(=O)(O)CCS(=O)(=O)O [Ethane-1,2-disulfonic acid]
[2]
  pKa1: −2.1
  pKa2: −1.5

## CCS(=O)(=O)O [Ethanesulfonic acid]
[2]
  pKa1: 2.1

## O=C(O)CCCC(=O)O [Glutaric acid]
[2]
  pKa1: 4.34

## O=C(O)CNC(=O)c1ccccc1 [Hippuric acid]
[2]
  pKa1: 3.6

## O=S(=O)(O)c1cccc2c(S(=O)(=O)O)cccc12 [Naphthalene-1,5-disulfonic acid]
[2]
  pKa1: −3.4
  pKa2: −2.6

## C=CCOc1ccccc1OC[C@@H](O)CNC(C)C.O=C(O)C(=O)O [Oxalate Pattern 1 & 2, S-oxprenolol oxalate]
[1]; [4]
  Observation after storage at 40° C./75% RH: predominantly unchanged

## O=C(O)c1cc2ccccc2c(Cc2c(O)c(C(=O)O)cc3ccccc23)c1O [Pamoic acid]
[2]
  pKa1: 2.5
  pKa2: 3.1

## O=C(O)c1ccccc1C(=O)O [Phthalic acid]
[2]
  pKa1: 2.89
  pKa2: 5.51

## C=CCOc1ccccc1OC[C@@H](O)CNC(C)C.O=P(O)(O)O [S-oxprenolol dihydrogenphosphate Pattern 1]
[3]
  stability (comparison of polymorphs, in words): issues with stability
[1]; after heating to 40° C., drying at ambient temperature (ca. 20° C.) under vacuum and storage at 40° C./75% RH
  XRPD form after stress: dihydrogenphosphate Pattern 1 to remain

## C=CCOc1ccccc1OC[C@@H](O)CNC(C)C.O=P(O)(O)O [S-oxprenolol dihydrogenphosphate Pattern 2]
[3]
  stability (comparison of polymorphs, in words): issues with stability
[1]; dried under vacuum at ambient temperature (ca. 20° C.) for ca. 69 h, precipitated from ethanol/heptane
  XRPD form after drying: phosphate Pattern 3 was obtained after drying
[1]; isolated from temperature cycling in 1-butanol, after drying
  XRPD form after drying: converted to phosphate Pattern 3

## C=CCOc1ccccc1OC[C@@H](O)CNC(C)C.O=P(O)(O)O [S-oxprenolol dihydrogenphosphate Pattern 3]
[3]
  stability (comparison of polymorphs, in words): improved stability
[3]; after 7 days storage at 40° C./75% RH
  HPLC purity following storage: > 99.9 % area
[3]; after 7 days storage at ambient temperature
  HPLC purity following storage: > 99.9 % area

## C=CCOc1ccccc1OC[C@@H](O)CNC(C)C.CC(=O)O [acetate salt]
[1]
  hygroscopicity properties: poor

## C=CCOc1ccccc1OC[C@@H](O)CNC(C)C.O=C(O)CNC(=O)c1ccccc1 [hippurate Pattern 1]
[1]; [5]
  XRPD form after drying: hippurate Pattern 1 was retained
[1]
  hygroscopicity properties: poor
[1]; [4]
  Observation after storage at 40° C./75% RH: deliquescence was observed to amorphous materials

## C=CCOc1ccccc1OC[C@@H](O)CNC(C)C.O=C(O)C(=O)O [oxalate Pattern 1, S-oxprenolol oxalate]
[1]
  XRPD form after drying and storage: oxalate Pattern 1 was retained

## C=CCOc1ccccc1OC[C@@H](O)CNC(C)C.O=C(O)C(=O)O [oxalate Pattern 2, S-oxprenolol oxalate]
[1]; [5]
  XRPD form after drying: a mixture of Pattern 1 and 2 was obtained

## C=CCOc1ccccc1OC[C@@H](O)CNC(C)C.O=C(O)c1ccc2ccccc2c1O [xinafoate Pattern 1]
[1]
  XRPD form after drying and storage: xinafoate Pattern 1 was retained

Reference: patent US12721826B2, “Salt of a pharmaceutical compound” (ACTIMED THERAPEUTICS LTD, priority 2023, dated 2026)
